Source: patent US10016498B2, “D-amino acid derivative-modified peptidoglycan and methods of use thereof” (priority 2012, dated 2018)

Columns and labels:
L. monocytogenes PG [1] = assay: alkDala labeling of newly synthesized PG: growth phase, vancomycin-BODIPY colocalization, antibiotic treatment; assay type: cell-based
[2] = tested on: L. monocytogenes in J774 macrophages; assay: alkDala labeling of intracellular bacteria during J774 macrophage infection; assay type: cell-based; conditions: 50 mM alkDala, azido-fluor 488
[3] = tested on: bacteria (E. coli, Bacillus subtilis, L. monocytogenes, Mycobacterium tuberculosis, Streptomyces coelicolor, Corynebacterium glutamicum); assay type: cell-based
[4] = tested on: peptidoglycan of gram-positive bacteria; assay: Incorporation of cyclooctyne D-amino acids into peptidoglycan, azido-PEG3-carboxyrhodamine labeling, flow cytometry and microscopy; assay type: cell-based, L. monocytogenes
Protocol: With all three amino acids in hand, their incorporation into the peptidoglycan of gram-positive bacteria was tested. The bacteria were grown for one-doubling time in the presence of 5 mM unnatural amino acids 30 to 32. The cells were then washed to remove excess amino acid and labeled with 20 μM of the commercially available azido-PEG3-carboxyrhodamine. This fluorophore efficiently labels terminal-alkyne-tagged peptidoglycan under copper-click conditions. The cells were then washed to remove excess probe, fixed, and studied by flow-cytometry and microscopy.
To further confirm that peptidoglycan was being labeled, a competition experiment was performed.

L. monocytogenes = assay type: cell-based
L. monocytogenes PG [5] = assay: HPLC and mass spectrometry of muropeptides from purified PG; assay type: cell-based
From the text: Having ruled out other potential sites of D-alanine derivative labeling, direct evidence of its incorporation into PG was sought. PG comprises a repeating disaccharide to which is conjugated a short peptide, termed the stem peptide (FIG. 1A). Although newly synthesized PG stem peptide usually terminates in D-alanine-D-alanine, diverse bacterial phyla produce and incorporate D-amino acids other than D-alanine into those positions. (17, 18) The process is flexible; various natural and unnatural D-amino acids appear to incorporate, albeit at varying efficiencies. […] After digesting the PG with muramidase, HPLC was used to detect muropeptides by absorbance at either 204 nm (to visualize all species) or 500 nm (to identify fluorophore-containing fragments). […] PG samples from E. coli incubated in azDala alone were analyzed; and it was determined that the fraction of D-alanine that had been replaced with the synthetic analog was roughly 50% of the tetrapeptide pool and 15% of the total muropeptide population.
FIGS. 2A-D. AlkDala incorporates into L. monocytogenes PG. […] Absorbance at 204 nm, blue, and at 500 nm, red, are shown. […] The most abundant peaks detected at 500 nm were collected and subjected to analysis by mass spectrometry, (D), to identify the chemical structure of the alkDala-containing muropeptides conjugated to azido-fluor 488, (B).

E. coli PG = assay type: cell-based, Escherchia coli

Compound: C[C@@H]1O[C@@H]1P(=O)(O)O [fosfomycin]
- effect of antibiotic treatment on alkDala labeling (L. monocytogenes PG [1]): completely abrogated

Compound: C#CC[C@@H](N)C(=O)O [alkDala, R-propargylglycine]
- site of labeling of intracellular L. monocytogenes ([2]; longer pulse (3.5 hrs)): at the septa and poles
- site of labeling of intracellular L. monocytogenes ([2]; short pulse (last 30 minutes)): labeled more at the septa
- cell surface labeling by microscopy [3]: Clear cell surface labeling of all species tested
- labeling of listeria lacking PBP5 versus wild type [4]: enhanced labeling over wild type
- colocalization of signal with vancomycin-BODIPY, a marker of nascent PG (L. monocytogenes PG [1]; one generation, azido-fluor 545): colocalized
- labeling of dal- dat- D-alanine auxotroph compared to wildtype (L. monocytogenes): labeled more strongly
- position of insertion in the PG stem peptide (L. monocytogenes PG [5]; L. monocytogenes): fifth position
- change of PG structure compared to D-alanine incubation (L. monocytogenes PG [5]; long periods of incubation): did not appreciably change PG structure
- position of insertion in the PG stem peptide (E. coli PG): fourth position

Compound: C[C@@H](O)[C@H]1C(=O)N2C(C(=O)O)=C(S[C@@H]3CN[C@H](C(=O)N(C)C)C3)[C@H](C)[C@H]12 [meropenem]
- effect of antibiotic treatment on alkDala labeling (L. monocytogenes PG [1]): much weaker effect

Compound: penicillin
- effect of antibiotic treatment on alkDala labeling (L. monocytogenes PG [1]): much weaker effect
